The values below come from paper PMC7235712, “Biological Activities of Essential Oils from Leaves of Paramignya trimera (Oliv.) Guillaum and Limnocitrus littoralis (Miq.) Swingle” (Antibiotics, 2020).

Data set [1] is described as follows: in vitro. As to conditions: African green monkey (Cercopithecus aethiops).
The test system of data set [2] is RSV. Description: Plaque reduction in Vero-76 monolayers, RSV. The format is cell-based. Conditions: human respiratory syncytial virus, reference compound.
For data set [3], the system named is HSV-1. Description: Plaque reduction in Vero-76 monolayers, HSV-1. The format is cell-based, human herpes virus 1. Conditions: Human alphaherpesvirus 1, reference compound.
Data set [4] deals with CV-B4. Nature of the data set: Plaque reduction in Vero-76 monolayers, CV-B4. The format is cell-based, human enterovirus B (coxsackie virus B4). Conditions: Enterovirus B, CVB4, reference compound.
For data set [5], the system named is Sb-1. Description: microbe, parasite or virus in culture. The format is cell-based, human enterovirus C (polio virus type-1). As to conditions: Enterovirus C, Vero 76, read-out: EC50 Sb-1.
Data set [6] concerns HIV-1IIIB. Nature of the data set: microbe, parasite or virus in culture. The format is cell-based, human immunodeficiency virus type-1. As to conditions: Human immunodeficiency virus 1, MT4, read-out: EC50 HIV-1IIIB.
The nature of data set [7]: in vitro. As to conditions: human.
Data set [8] deals with S. aureus. Conditions: β-caryophyllene from Aquilaria crassna essential oil; cited from earlier work.
For data set [9], the system named is Reo-1. Description: microbe, parasite or virus in culture. The format is cell-based, reovirus type-1. As to conditions: Reovirus sp., BHK, read-out: EC50 Reo-1.
A short description of data set [10]: in vitro. Conditions: Syrian hamster (Mesocricetus auratus).
A short description of data set [11]: in vitro. As to conditions: cattle (Bos taurus).
The subject of data set [12] is YFV. Description: microbe, parasite or virus in culture. The format is cell-based. As to conditions: Yellow fever virus, BHK, read-out: EC50 YFV.
Data set [13] deals with BVDV. Nature of the data set: microbe, parasite or virus in culture. The format is cell-based, bovine viral diarrhoea virus. Conditions: Bovine viral diarrhea virus isolates and strains, MDBK, in Bos taurus, read-out: EC50 BVDV.

The structures appear in SMILES notation. In brackets after ≈: the same amount, converted by molar mass.

As for `O=c1cnn([C@@H]2O[C@H](CO)[C@@H](O)[C@H]2O)c(=O)[nH]1` [RC4, 6-aza-uridine], in [1], the CC50 is no less than 14000 nM. Further, it took 2000 ± 200 nM to reach a half-maximal effect in data set [2] (EC50).

`Nc1nc2c(ncn2COCCO)c(=O)[nH]1` [RC5, Acycloguanosine] yielded a CC50 in data set [1] greater than 100000 nM. Moreover, the response in data set [3] was half-maximal at 3000 ± 100 nM (EC50).

Compound `Cc1cc(CCCOc2c(C)cc(-c3noc(C(F)(F)F)n3)cc2C)on1` [RC3, Pleconaril] came in with a CC50 in [1] greater than 100000 nM. The EC50 in data set [4] is 2000 ± 500 nM; in [5] it was 2000 nM.

`COc1c(C)c2c(c(O)c1C/C=C(\C)CCC(=O)O)C(=O)OC2` [RC6, Mycophenolic acid] showed a CC50 in data set [1] greater than 100000 nM.

Take `O=C1Nc2ccc(Cl)cc2[C@@](C#CC2CC2)(C(F)(F)F)O1` [RC1, Efavirenz]: the EC50 in [6] was 3 ± 0.3 nM. In addition, in data set [7], the CC50 amounted to 40000 nM.

For `C=C1CC/C=C(\C)CC[C@@H]2[C@@H]1CC2(C)C` [β-caryophyllene], the MIC in data set [8] is listed as 3 ± 0.4 µM (≈ 0.613 µg/mL).

On to `C[C@@]1(O)[C@H](O)[C@@H](CO)O[C@H]1n1ccc(N)nc1=O` [RC7, 2′-C-methylcytidine], for which the EC50 in data set [9] turned out to be 17000 nM. This compound also displayed a CC50 in [10] greater than 100000 nM.

On to `C[C@@]1(O)[C@H](O)[C@@H](CO)O[C@H]1n1cnc2c(=O)[nH]c(N)nc21` [RC2, 2′-C-methylguanosine], for which the values for the CC50 in [11] and in data set [10] were greater than 100000 nM and 80000 nM, respectively. In addition, the EC50 in data set [12] worked out at 1400 ± 200 nM; in data set [13], 1700 ± 300 nM.
